# Values of other authors as cited in patent US8257742B2, “Bisphosphonates for treating endometriosis” (Yissum Research Development Company of the Hebrew …, priority 2005, dated 2012).
# Test system: endometriosis explants
# Conditions: in vivo
structure (smiles),measurement,value
"C=CCn1c(=O)n([C@@H]2O[C@H](CO)[C@@H](O)[C@H]2O)c2nc(N)[nH]c(=O)c21 [loxoribine, Loxoribine]",regression of endometriosis explants,Regression of endometriosis explants was observed
